Four compounds from EPA's ToxRefDB 2 can be followed below.

Data set [1] relates to mouse. Conditions: Carcinogenicity, cd1, Oral, [Not Specified], dose end: 18 month, group: systemic.
Data set [2] relates to rat. Conditions: Combined chronic toxicity/carcinogenicity, sprague dawley, Oral, Feed, dose end: 105 week, group: systemic.
The next data set has as its system rabbit. The conditions noted are these: Prenatal developmental toxicity study, new zealand white, Oral, Gavage/Intubation, dose end: 18 GD.
For data set [3], the system named is rat. The conditions noted are these: Combined chronic toxicity/carcinogenicity, sprague dawley, Oral, Feed, dose end: 104 week, group: systemic.
The subject of data set [4] is rat. The conditions noted are these: Subchronic oral toxicity in rodents, sprague dawley, Gavage/Intubation, dose end: 12 week, group: systemic, systemic / clinical chemistry / albumin / albumin + systemic / clinical chemistry / alkaline phosphatase (alp/alk) / alkaline phosphatase (….
Data set [5] deals with rat. The conditions noted are these: Combined chronic toxicity/carcinogenicity, other, Oral, Feed, dose end: 104 week, group: systemic.
The test system of data set [6] is dog. The conditions noted are these: Chronic toxicity; beagle; Oral; Feed; dose end: 2 year; group: systemic; systemic / in life observation / body weight / body weight gain + systemic / in life observation / food consumption / food consumption + ….
Data set [7] has as its system rat. Conditions: Subchronic oral toxicity in rodents, wistar, Feed, dose end: 13 week, group: systemic.
The subject of data set [8] is rat. The conditions noted are these: Chronic toxicity; sprague dawley (CD); Oral; Feed; dose end: 104 week; group: systemic; systemic / in life observation / body weight / body weight + systemic / in life observation / body weight / body weight gain.
Data set [9] concerns dog. Conditions: Sub-acute repeat dose toxicity; other; Oral; Feed; dose end: 4 week; group: systemic; systemic / in life observation / body weight / body weight gain + systemic / in life observation / food consumption / food consumption.
Data set [10] deals with mouse. Conditions: Carcinogenicity, cd1, Oral, Feed, dose end: 104 week, group: systemic.
Data set [11] relates to rat. The conditions noted are these: Chronic toxicity; wistar; Oral; Feed; dose end: 2 year; group: systemic; systemic / hematology / hemoglobin (hgb) / hemoglobin (hgb) + systemic / in life observation / body weight / body weight + systemic / organ ….
Data set [12] has as its system mouse. The conditions noted are these: Subchronic oral toxicity in rodents, cd1, Feed, dose end: 90 day, group: systemic.
Data set [13] has as its system rat. Conditions: Multigenerational reproductive toxicity study, sprague dawley, Oral, Feed, dose end: 2 generation.
The test system of data set [14] is rat. The conditions noted are these: Combined chronic toxicity/carcinogenicity, sprague dawley, Oral, Feed, dose end: 24 month.
Data set [15] has as its system rat. Conditions: Prenatal developmental toxicity study, sprague dawley, Oral, Gavage/Intubation, dose end: 15 GD.
Data set [16] relates to mouse. Conditions: Carcinogenicity, cd1, Oral, Feed, dose end: 18 month, group: systemic.
The test system of data set [17] is dog. The conditions noted are these: Chronic toxicity, beagle, Oral, Capsule, dose end: 52 week.
[18] abbreviates: systemic / in life observation / body weight / body weight.
The mark [19] stands for this setting: systemic / in life observation / body weight / body weight + systemic / in life observation / food consumption / food consumption.
Setting [20] is: systemic / in life observation / food consumption / food consumption + systemic / in life observation / body weight / body weight.
Setting [21] is: systemic / clinical chemistry / aspartate aminotransferase (ast/sgot) / aspartate aminotransferase (ast/sgot).
Where [22] appears, read: systemic / in life observation / mortality / mortality + systemic / pathology gross / mammary gland / cyst + systemic / pathology gross / ….
Where [23] appears, read: group: developmental, developmental / developmental malformation / bone / supernumerary.
Setting [24] is: group: developmental, developmental / developmental malformation / bone / supernumerary + developmental / developmental malformation / heart / [other] + ….
[25] abbreviates: group: maternal, systemic / in life observation / body weight / body weight gain + systemic / in life observation / food consumption / food consumption.
Where [26] appears, read: systemic / in life observation / clinical signs / fur (altered appearance) + systemic / in life observation / clinical signs / urine ….
The mark [27] stands for this setting: systemic / clinical chemistry / thyroxine (t4) / thyroxine (t4), total + systemic / pathology microscopic / liver / cellular alteration + ….
Where [28] appears, read: systemic / hematology / anemia / anemia - hemolytic + systemic / hematology / hemoglobin (hgb) / hemoglobin (hgb) + systemic / hematology / ….
Where [29] appears, read: systemic / clinical chemistry / cholesterol / cholesterol + systemic / clinical chemistry / gamma glutamyl transpeptides (gtp) / gamma ….
[30] abbreviates: systemic / pathology microscopic / liver / hypertrophy.
Setting [31] is: systemic / pathology microscopic / liver / hypertrophy + systemic / organ weight / liver / absolute + systemic / organ weight / liver / ….
The mark [32] stands for this setting: group: offspring, systemic / in life observation / body weight / offspring (pup) weight.
[33] abbreviates: group: parental, systemic / pathology gross / lung / foci + systemic / pathology microscopic / kidney / dilatation + systemic / pathology microscopic / ….
[34] abbreviates: group: cholinesterase, cholinesterase / cholinesterase / cholinesterase / plasma cholinesterase (che).
The mark [35] stands for this setting: group: systemic, systemic / hematology / erythrocyte (rbc) count differential / erythrocyte (rbc) + systemic / hematology / hematocrit (hct) / hematocrit (….
Setting [36] is: group: developmental, developmental / developmental malformation / bone / incomplete ossification.
The mark [37] stands for this setting: group: developmental, developmental / developmental malformation / bone / incomplete ossification + developmental / developmental malformation / bone / ….
[38] abbreviates: group: maternal, systemic / in life observation / food consumption / food consumption + systemic / in life observation / body weight / body weight + systemic….
Setting [39] is: group: cholinesterase, cholinesterase / cholinesterase / cholinesterase / plasma cholinesterase (che) + cholinesterase / cholinesterase / cholinesterase / brain ….
Setting [40] is: group: systemic, systemic / in life observation / clinical signs / tremors + systemic / in life observation / clinical signs / vomitting.

The term LOAEL denotes the lowest dose or exposure tested at which an adverse effect was seen. As a reminder, the NOAEL is the highest tested level that showed no adverse finding.

For the compound `CC1(C)C(=O)N(Cl)C(=O)N1Cl` [1,3-Dichloro-5,5-dimethylhydantoin], the LEL was determined as 320 mg/kg/day with mouse [1] (setting [18]); 100 mg/kg/day in the data set on rat [2] (setting [21]); 500 mg/kg/day with rabbit (setting [23]); 1000 mg/kg/day with rabbit (setting [25]); 100 mg/kg/day with rat [3] (setting [26]). In addition, the NEL is 100 mg/kg/day with mouse [1] (setting [19]); under 100 mg/kg/day in the data set with rat [2] (setting [21]); 100 mg/kg/day with rabbit (setting [24]); 500 mg/kg/day in the data set on rabbit (setting [25]); under 100 mg/kg/day in the data set on rat [3] (setting [26]). Also, the LOAEL in the data set with mouse [1] (setting [20]) is over 1000 mg/kg/day; in the data set on rat [2] (setting [22]), 1000 mg/kg/day; in the data set with rabbit (setting [23]), 500 mg/kg/day; with rabbit (setting [25]), 1000 mg/kg/day; in the data set with rat [3] (systemic / in life observation / body weight / body weight + systemic / in life observation / body weight / body weight gain + systemic / …), 1000 mg/kg/day. Further, the NOAEL with mouse [1] (setting [20]) is at least 1000 mg/kg/day; with rat [2] (setting [22]), 320 mg/kg/day; with rabbit (setting [24]), 100 mg/kg/day; in the data set with rabbit (setting [25]), 500 mg/kg/day; in the data set on rat [3] (systemic / in life observation / body weight / body weight + systemic / in life observation / body weight / body weight gain + systemic / in…), 300 mg/kg/day.

As to `CC1=C(/C=C/C(C)=C/C=C/C(C)=C\C(=O)O)C(C)(C)CCC1` [13-cis Retinoic acid], in the data set on rat [4], the LEL amounted to 4 mg/kg/day, the LOAEL was over 40 mg/kg/day, the NEL was under 4 mg/kg/day and the NOAEL was at least 40 mg/kg/day.

Take `COC(=O)c1c(Cl)c(Cl)c(C(=O)OC)c(Cl)c1Cl` [Chlorthal-dimethyl]: the LEL was determined as 10 mg/kg/day in the data set with rat [5] (setting [27]); 100 mg/kg/day with dog [6]; 17 mg/kg/day in the data set on rat [7] (systemic / hematology / polychromasia / polychromasia); 1000 mg/kg/day in the data set on rat [8]; 250 mg/kg/day in the data set on dog [9]; 150 mg/kg/day with mouse [10] (systemic / clinical chemistry / gamma glutamyl transpeptides (gtp) / gamma glutamyl transpeptides (gtp) + systemic / clinical chemistry / …). Besides, the LEL in the data set on rat [11] was 80 mg/kg/day; in the data set on mouse [12] (setting [30]), 1050 mg/kg/day; with rat [13] (setting [32]), 233 mg/kg/day; in the data set with rat [13] (group: parental, systemic / pathology microscopic / lung / infiltration cellular + systemic / pathology microscopic / thymus / involution), 45 mg/kg/day. For the same compound, the LOAEL in the data set on rat [5] (setting [27]) was 10 mg/kg/day; in the data set with dog [6], over 100 mg/kg/day; in the data set with rat [7] (setting [28]) it was over 2500 mg/kg/day; with rat [8], 1000 mg/kg/day; with dog [9] it was over 1250 mg/kg/day; in the data set with mouse [10] (setting [29]) it was 1140 mg/kg/day. Further, the LOAEL was over 80 mg/kg/day in the data set on rat [11], 1240 mg/kg/day in the data set with mouse [12] (setting [30]), 233 mg/kg/day in the data set with rat [13] (setting [32]) and 233 mg/kg/day in the data set on rat [13] (setting [33]). The NOAEL was 1 mg/kg/day in the data set with rat [5] (setting [27]); at least 100 mg/kg/day in the data set with dog [6]; at least 2500 mg/kg/day in the data set with rat [7] (setting [28]); 50 mg/kg/day with rat [8]; at least 1250 mg/kg/day with dog [9]; 510 mg/kg/day in the data set with mouse [10] (setting [29]). In addition, the NOAEL in the data set with rat [11] was at least 80 mg/kg/day; with mouse [12] (setting [31]), 406 mg/kg/day; in the data set with rat [13] (setting [32]), 45 mg/kg/day; in the data set with rat [13] (setting [33]) it was 45 mg/kg/day. Moreover, the NEL in the data set on rat [5] (systemic / pathology microscopic / eye / atrophy + systemic / pathology microscopic / liver / cellular alteration + systemic / pathology …) amounted to 1 mg/kg/day; in the data set on dog [6] it was 15 mg/kg/day; with rat [7] (setting [28]), 5 mg/kg/day; with rat [8], 50 mg/kg/day; with dog [9], 50 mg/kg/day; with mouse [10] (setting [29]) it was 15 mg/kg/day. For the same compound, the NEL in the data set with rat [11] amounted to 20 mg/kg/day; with mouse [12] (setting [31]), 517 mg/kg/day; in the data set with rat [13] (setting [32]), 45 mg/kg/day.

In the case of `CCOP(=S)(OCC)SCSCC` [Phorate], the LEL with rat [14] (setting [34]) worked out at 0.05 mg/kg/day; with rat [14] (setting [35]) it was 0.3 mg/kg/day; in the data set with rat [15] (setting [36]), 0.1 mg/kg/day; with rat [15] (setting [38]) it was 0.4 mg/kg/day; in the data set on mouse [16] (setting [19]) it was 0.8 mg/kg/day; in the data set on dog [17] (setting [34]) it was 0.05 mg/kg/day. Further, the LEL with dog [17] (group: systemic, systemic / in life observation / clinical signs / vomitting) was 0.01 mg/kg/day. For the same compound, the LOAEL was 0.05 mg/kg/day with rat [14] (setting [34]); over 0.3 mg/kg/day in the data set on rat [14] (setting [35]); 0.4 mg/kg/day with rat [15] (setting [37]); 0.2 mg/kg/day with rat [15] (group: maternal, systemic / in life observation / food consumption / food consumption); 0.8 mg/kg/day in the data set on mouse [16] (setting [18]); 0.05 mg/kg/day in the data set with dog [17] (setting [34]). The LOAEL in the data set on dog [17] (group: systemic, systemic / in life observation / clinical signs / tremors + systemic / in life observation / body weight / body weight gain) came to 0.25 mg/kg/day. The NEL in the data set with rat [14] (setting [34]) is under 0.05 mg/kg/day; with rat [14] (setting [35]) it was 0.15 mg/kg/day; with rat [15] (setting [36]), under 0.1 mg/kg/day; in the data set with rat [15] (setting [38]), 0.3 mg/kg/day; with mouse [16] (setting [19]), 0.4 mg/kg/day; with dog [17] (setting [39]), 0.01 mg/kg/day. The NEL in the data set with dog [17] (setting [40]) was 0.005 mg/kg/day. The NOAEL in the data set with rat [14] (setting [34]) was under 0.05 mg/kg/day; in the data set with rat [14] (setting [35]), at least 0.3 mg/kg/day; with rat [15] (setting [37]) it was 0.3 mg/kg/day; with rat [15] (setting [38]), 0.1 mg/kg/day; in the data set on mouse [16] (setting [19]) it was 0.4 mg/kg/day; in the data set on dog [17] (setting [39]), 0.01 mg/kg/day. In the data set with dog [17] (setting [40]), the no-observed-adverse-effect level (NOAEL) is 0.05 mg/kg/day.
